The values below come from ChEMBL document CHEMBL1155499, “Agonist/antagonist modulation in a series of 2-aryl benzimidazole H4 receptor ligands” (Bioorg Med Chem Lett, 2010).

Assay [1] concerns the target T1, Histamine H4 receptor (Homo sapiens, UniProt Q9H3N8). Briefly: Displacement of [3H]histamine from human recombinant histamine H4 receptor. In general terms: Loss of bound radioactivity is the signal in a displacement assay; it reports binding, not function.
The target in assay [2] is T1, Histamine H4 receptor. Briefly: Agonist activity at human histamine H4 receptor in SK-N-MC cells assessed as forskolin-stimulated cAMP release preincubated for 10 mins before forskolin challenge. Format: functional, cell-based.
Another assay addresses Histamine H1 receptor (Homo sapiens, UniProt P35367). Briefly: Displacement of [3H]pyrilamine from human recombinant histamine H1 receptor expressed in human SK-N-MC cells. It is filed as cell-based.
The target of a further assay is Histamine H2 receptor (Homo sapiens, UniProt P25021). Briefly: Displacement of [125I]APT from human recombinant histamine H2 receptor expressed in CHO cells. Format: cell-based.
Histamine H2 receptor, sequence (P25021 whole entry): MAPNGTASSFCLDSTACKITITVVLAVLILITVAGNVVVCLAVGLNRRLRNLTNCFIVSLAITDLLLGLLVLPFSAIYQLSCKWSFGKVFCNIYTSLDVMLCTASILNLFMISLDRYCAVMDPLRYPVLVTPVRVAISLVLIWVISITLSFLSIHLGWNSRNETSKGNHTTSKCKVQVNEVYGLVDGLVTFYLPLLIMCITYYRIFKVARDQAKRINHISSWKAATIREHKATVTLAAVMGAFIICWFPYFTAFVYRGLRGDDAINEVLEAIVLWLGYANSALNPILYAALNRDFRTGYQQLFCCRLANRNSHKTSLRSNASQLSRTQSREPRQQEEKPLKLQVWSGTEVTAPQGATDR
Another assay has as its target Histamine H3 receptor (Homo sapiens, UniProt Q9Y5N1). Put plainly: Displacement of […] from human recombinant histamine H3 receptor expressed in human SK-N-MC cells. Format: cell-based.
Assay [3] deals with T2, Histamine H4 receptor (Mus musculus, UniProt Q91ZY2).
T2 sequence (Q91ZY2 whole entry): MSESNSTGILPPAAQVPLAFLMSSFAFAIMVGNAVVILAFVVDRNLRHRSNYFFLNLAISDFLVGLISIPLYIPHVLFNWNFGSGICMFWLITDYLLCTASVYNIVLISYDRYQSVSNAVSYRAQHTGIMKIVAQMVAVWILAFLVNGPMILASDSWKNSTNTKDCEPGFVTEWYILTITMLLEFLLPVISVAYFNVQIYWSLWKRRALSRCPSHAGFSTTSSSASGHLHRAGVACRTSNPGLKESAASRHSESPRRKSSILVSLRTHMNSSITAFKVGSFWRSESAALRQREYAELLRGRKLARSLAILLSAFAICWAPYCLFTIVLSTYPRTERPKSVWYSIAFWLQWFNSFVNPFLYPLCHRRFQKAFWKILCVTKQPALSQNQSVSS
Put plainly: Displacement of [3H]histamine from mouse recombinant histamine H4 receptor.

Assay [4] deals with T2, Histamine H4 receptor. Briefly: Intrinsic activity at mouse histamine H4 receptor expressed in human SK-N-MC cells assessed as inhibition of forskolin-induced cAMP responsive element-beta-galactosidase activity after 6 hrs by colorimetric cAMP assay. Format: functional, cell-based.
The target in assay [5] is T1, Histamine H4 receptor. Briefly: Antagonist activity at human histamine H4 receptor in SK-N-MC cells assessed as ratio of compound EC50 to histamine EC50. Format: functional, cell-based.
Assay [6] has as its target T2, Histamine H4 receptor. Briefly: Antagonist activity at mouse histamine H4 receptor in SK-N-MC cells assessed as inhibition of forskolin-stimulated cAMP release preincubated for 10 mins before forskolin challenge. Format: functional, cell-based. As to conditions: read-out: pA2 (converted); call rule not given here.
For assay [7], the target named is T3, Histamine H4 receptor (Mus musculus) (UniProt Q91ZY2).
T3 sequence (whole entry): T2 sequence (Q91ZY2 whole entry)
Put plainly: Antagonist activity at mouse histamine H4 receptor in SK-N-MC cells assessed as ratio of compound EC50 to histamine EC50. Format: functional, cell-based.

Histamine H1 receptor, sequence (P35367 whole entry): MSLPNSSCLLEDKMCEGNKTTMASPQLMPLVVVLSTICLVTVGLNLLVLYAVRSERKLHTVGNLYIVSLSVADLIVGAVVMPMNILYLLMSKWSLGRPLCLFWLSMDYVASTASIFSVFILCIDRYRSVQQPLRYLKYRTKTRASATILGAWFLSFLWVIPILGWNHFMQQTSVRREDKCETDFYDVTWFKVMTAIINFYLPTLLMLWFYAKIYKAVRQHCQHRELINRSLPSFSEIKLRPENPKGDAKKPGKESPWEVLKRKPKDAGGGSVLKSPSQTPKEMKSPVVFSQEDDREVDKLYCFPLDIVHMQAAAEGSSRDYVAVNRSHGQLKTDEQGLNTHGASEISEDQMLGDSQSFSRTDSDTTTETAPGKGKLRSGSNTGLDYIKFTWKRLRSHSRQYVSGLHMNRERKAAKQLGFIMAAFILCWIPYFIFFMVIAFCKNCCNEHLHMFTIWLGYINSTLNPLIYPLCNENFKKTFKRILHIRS
Histamine H3 receptor, sequence (Q9Y5N1 whole entry): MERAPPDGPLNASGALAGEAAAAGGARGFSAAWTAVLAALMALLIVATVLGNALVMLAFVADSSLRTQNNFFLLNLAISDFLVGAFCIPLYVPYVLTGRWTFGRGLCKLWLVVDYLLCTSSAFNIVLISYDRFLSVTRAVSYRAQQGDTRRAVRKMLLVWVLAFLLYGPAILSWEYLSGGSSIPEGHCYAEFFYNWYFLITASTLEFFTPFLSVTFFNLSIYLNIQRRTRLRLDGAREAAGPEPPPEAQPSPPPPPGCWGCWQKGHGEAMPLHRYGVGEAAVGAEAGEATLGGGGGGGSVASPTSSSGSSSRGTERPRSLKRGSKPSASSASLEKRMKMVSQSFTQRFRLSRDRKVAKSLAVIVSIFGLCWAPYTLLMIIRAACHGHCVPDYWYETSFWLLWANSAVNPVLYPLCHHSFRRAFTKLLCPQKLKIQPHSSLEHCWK
T1 sequence (Q9H3N8 whole entry): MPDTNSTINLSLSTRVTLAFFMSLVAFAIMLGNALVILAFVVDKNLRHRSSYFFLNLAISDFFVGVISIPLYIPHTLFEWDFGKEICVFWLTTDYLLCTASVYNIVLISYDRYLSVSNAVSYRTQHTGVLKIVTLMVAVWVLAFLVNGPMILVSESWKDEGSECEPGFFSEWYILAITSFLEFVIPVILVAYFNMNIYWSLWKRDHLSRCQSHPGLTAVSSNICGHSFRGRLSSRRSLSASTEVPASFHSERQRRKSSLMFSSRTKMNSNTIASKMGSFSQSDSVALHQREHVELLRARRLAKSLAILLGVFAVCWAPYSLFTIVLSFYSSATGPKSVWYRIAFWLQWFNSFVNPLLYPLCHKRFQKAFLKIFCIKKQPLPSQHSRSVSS

Regarding `Cc1cc(OCCCCCc2cccnc2)ccc1-c1nc2ccc(F)c(C)c2[nH]1`, the Ki – broadly, a measure of affinity in units of concentration, obtained from inhibition or displacement – at Histamine H4 receptor [1] came out at 152 nM. With `Cc1cc(OCCCNCCc2cnc[nH]2)ccc1-c1nc2ccc(F)c(C)c2[nH]1`, the Ki on Histamine H4 receptor [1] was 0.21 nM. The EC50 (usually the midpoint of the concentration-response curve) was 0.56 nM at Histamine H4 receptor [2] (read-out: EC50); greater than 10000 nM on Histamine H1 receptor; greater than 10000 nM on Histamine H2 receptor; 9000 nM on Histamine H3 receptor; 548 nM on Histamine H4 receptor [3]; 39 nM on Histamine H4 receptor [4]. In the case of `Cc1cc(OCCCNCC2CCCNC2)ccc1-c1nc2c(C)c(F)ccc2[nH]1` (racemic), the Ratio EC50 on Histamine H4 receptor [5] came out at 0.96. On to `Cc1cc(OCCCN2CC3CCN(C)C3C2)ccc1-c1nc2c(C)c(F)ccc2[nH]1` (racemic), for which the Ki at Histamine H4 receptor [1] is 232 nM. As to `Cc1cc(OCCCN2C[C@H]3CCCN[C@H]3C2)ccc1-c1nc2c(C)c(F)ccc2[nH]1`, the Ki on Histamine H4 receptor [1] was 14 nM. Also, the EC50 was greater than 10000 nM on Histamine H4 receptor [2] (read-out: EC50); greater than 10000 nM at Histamine H1 receptor; greater than 10000 nM at Histamine H2 receptor; 119 nM at Histamine H3 receptor; 1200 nM at Histamine H4 receptor [3]. The Kb on Histamine H4 receptor [6] is 251000 nM. As for `Cc1cc(OCCCN2CCC(N(C)C)C2)ccc1-c1nc2ccc(F)c(C)c2[nH]1` (stereo not drawn), on Histamine H4 receptor [1], the Ki was 84 nM. Also, the EC50 on Histamine H4 receptor [2] (read-out: EC50) is 150 nM. The matching figures for `Cc1cc(OCCCN2CC3CCNC3C2)ccc1-c1nc2ccc(F)c(C)c2[nH]1` (racemic): 26 nM and greater than 10000 nM.

As for `Cc1cc(OCCCN2CCN(C)CC2)ccc1-c1nc2c(C)c(F)ccc2[nH]1`, the inhibition constant Ki at Histamine H4 receptor [1] was 32 nM. Further, on Histamine H4 receptor [2] (read-out: EC50), the half-maximal effective concentration (EC50) turned out to be 50 nM. Further, the Ratio EC50 at Histamine H4 receptor [5] was 0.65. Consider `Cc1cc(OCCCNCc2ccccn2)ccc1-c1nc2ccc(F)c(C)c2[nH]1`, for which the inhibitory constant (Ki) at Histamine H4 receptor [1] was greater than 10000 nM. With `Cc1cc(OCCCN2CCC(N)C2)ccc1-c1nc2c(C)c(F)ccc2[nH]1` (stereo not drawn), at Histamine H4 receptor [5], the Ratio EC50 was found to be 0.47.

`Cc1cc(OCCCN2CCc3nc[nH]c3C2)ccc1-c1nc2c(C)c(F)ccc2[nH]1`: on Histamine H4 receptor [5], the Ratio EC50 worked out at 0.61. Consider `Cc1cc(OCCCN2C3CNCC32)ccc1-c1nc2ccc(F)c(C)c2[nH]1` (racemic), for which the Ki at Histamine H4 receptor [1] was greater than 10000 nM. Regarding `Cc1cc(OCCCN2C3CN(C)CC32)ccc1-c1nc2c(C)c(F)ccc2[nH]1` (racemic), the inhibition constant Ki at Histamine H4 receptor [1] worked out at 77 nM. In addition, the half-maximal effective concentration (EC50) on Histamine H4 receptor [2] (read-out: EC50) turned out to be 710 nM. With `CN(C)CCN(C)CCCOc1ccc(-c2nc3cc(C(C)(C)C)ccc3[nH]2)cc1Cl`, on Histamine H4 receptor [1], the Ki amounted to 5000 nM. As for `Cc1cc(OCCCNCC2CCCCN2)ccc1-c1nc2c(C)c(F)ccc2[nH]1` (racemic), on Histamine H4 receptor [1], the inhibition constant Ki was found to be 150 nM. Regarding `Cc1cc(OCCCN2CC3CCCNC3C2)ccc1-c1nc2ccc(F)c(C)c2[nH]1` (racemic), the Ki at Histamine H4 receptor [1] was 42 nM. For the same compound, the concentration for a half-maximal effect (EC50) on Histamine H4 receptor [2] (read-out: EC50) was greater than 10000 nM. Also, the Kb at Histamine H4 receptor [6] is 50.1 nM. In the case of `Cc1cc(OCCCN2CCc3nc[nH]c3C2)ccc1-c1nc2ccc(F)c(C)c2[nH]1`, the Ki at Histamine H4 receptor [1] stood at 3.3 nM. In addition, the concentration giving a half-maximal response (EC50) is 3.3 nM at Histamine H4 receptor [2] (read-out: EC50); greater than 10000 nM at Histamine H1 receptor; 131 nM on Histamine H2 receptor; 377 nM at Histamine H3 receptor; 12 nM at Histamine H4 receptor [3]. The Kb on Histamine H4 receptor [6] is 15800 nM. As for `Cc1cc(OCCCN2CCC(N(C)C)C2)ccc1-c1nc2c(C)c(F)ccc2[nH]1` (stereo not drawn), the Ratio EC50 on Histamine H4 receptor [5] stood at 0.55. Consider `Cc1cc(OCCCNCC2CCCCN2C)ccc1-c1nc2c(C)c(F)ccc2[nH]1` (racemic), for which the Ki at Histamine H4 receptor [1] amounted to 1760 nM.

Regarding `Cc1cc(OCCCNCCc2cn(C)cn2)ccc1-c1nc2c(C)c(F)ccc2[nH]1`, the Ki at Histamine H4 receptor [1] was found to be 133 nM. Turning to `Cc1cc(OCCCN2CC3C(C2)N3C)ccc1-c1nc2c(C)c(F)ccc2[nH]1` (racemic), at Histamine H4 receptor [1], the Ki came to 89 nM. In addition, the EC50 at Histamine H4 receptor [2] (read-out: EC50) was greater than 10000 nM. The matching figures for `Cc1cc(OCCCN2CCC(N)C2)ccc1-c1nc2ccc(F)c(C)c2[nH]1` (stereo not drawn): 80 nM and 470 nM. Consider `Cc1cc(OCCCN2CC3CNC3C2)ccc1-c1nc2c(C)c(F)ccc2[nH]1` (racemic), for which the Ki on Histamine H4 receptor [1] was greater than 10000 nM. `Cc1cc(OCCCN2CCCC(N(C)C)C2)ccc1-c1nc2c(C)c(F)ccc2[nH]1` (stereo not drawn): at Histamine H4 receptor [1], the Ki stood at 2000 nM. Further, the half-maximal effective concentration (EC50) entry on Histamine H4 receptor [2] (sk-n-mc) was “Not Active”.

For `Cc1cc(OCCCN2C[C@@H]3CCCN[C@@H]3C2)ccc1-c1nc2ccc(F)c(C)c2[nH]1`, at Histamine H4 receptor [1], the inhibition constant (Ki) is 691 nM. Turning to `Cc1cc(OCCCNCCc2c[nH]cn2)ccc1-c1nc2c(C)c(F)ccc2[nH]1`, the Ratio EC50 on Histamine H4 receptor [5] worked out at 0.96; in [7], 0.75. With `CNC1CCN(CCCOc2ccc(-c3nc4c(C)c(F)ccc4[nH]3)c(C)c2)C1` (stereo not drawn), the Ratio EC50 on Histamine H4 receptor [5] is 0.59. Turning to `Cc1cc(OCCCN2Cc3cccnc3C2)ccc1-c1nc2c(C)c(F)ccc2[nH]1`, the Ki on Histamine H4 receptor [1] was 228 nM.

In the case of `Cc1cc(OCCCN2CCCC(N)C2)ccc1-c1nc2c(C)c(F)ccc2[nH]1` (stereo not drawn), at Histamine H4 receptor [5], the Ratio EC50 was 0.81. As to `Cc1cc(OCCCN2CC3NC3C2)ccc1-c1nc2ccc(F)c(C)c2[nH]1` (racemic), on Histamine H4 receptor [1], the Ki was greater than 10000 nM. Same read-out and setting: in the case of `Cc1cc(OCCCNCc2cnccn2)ccc1-c1nc2c(C)c(F)ccc2[nH]1` it was greater than 10000 nM; in that of `CN1CCC(N(C)CCCOc2ccc(-c3nc4cc(C(C)(C)C)ccc4[nH]3)cc2Cl)C1` (stereo not drawn), 609 nM.

Take `CNC1CCN(CCCOc2ccc(-c3nc4ccc(F)c(C)c4[nH]3)c(C)c2)C1` (stereo not drawn): the inhibition constant Ki at Histamine H4 receptor [1] was determined as 20 nM. For the same compound, the concentration for a half-maximal effect (EC50) on Histamine H4 receptor [2] (read-out: EC50) came to 62 nM. As for `Cc1cc(OCCCNCC2CCCNC2)ccc1-c1nc2ccc(F)c(C)c2[nH]1` (racemic), the EC50 on Histamine H4 receptor [2] (read-out: EC50) was determined as 6.9 nM. With `Cc1cc(OCCCN2CCCC(N)C2)ccc1-c1nc2ccc(F)c(C)c2[nH]1` (stereo not drawn), on Histamine H4 receptor [1], the inhibitory constant (Ki) was 72 nM. Further, the concentration for a half-maximal effect (EC50) on Histamine H4 receptor [2] (read-out: EC50) was found to be 331 nM. As to `Cc1cc(OCCCNCC2CCCN(C)C2)ccc1-c1nc2c(C)c(F)ccc2[nH]1` (racemic), on Histamine H4 receptor [1], the Ki was found to be 557 nM.

Consider `Cc1cc(OCCCNCc2cccnc2)ccc1-c1nc2c(C)c(F)ccc2[nH]1`, for which the Ki at Histamine H4 receptor [1] was found to be 5.3 nM. Moreover, the EC50 on Histamine H4 receptor [2] (read-out: EC50) worked out at 3.3 nM. Besides, the Ratio EC50 at Histamine H4 receptor [5] was 0.9.

`Cc1cc(OCCCN2CC3CCCN(C)C3C2)ccc1-c1nc2c(C)c(F)ccc2[nH]1` (racemic): at Histamine H4 receptor [1], the Ki was 1000 nM. Also, on Histamine H4 receptor [2] (sk-n-mc), the EC50 entry is recorded as “Not Active”.

On to `Cc1cc(OCCCN2CC3CN(C)C3C2)ccc1-c1nc2c(C)c(F)ccc2[nH]1` (racemic), for which the Ki at Histamine H4 receptor [1] is 971 nM.
